Experimental data reported in US20240376411A1, “IMPROVED PERFUME COMPOSITIONS COMPRISING SULFUR-CONTAINING PRO-FRAGRANCE COMPOUNDS” (FIRMENICH SA, priority 2021, published 2024).

assay: Identification of perfumery raw materials that promote hydrogen sulfide formation (1:1 w/w mix, storage, smell); format: physicochemical; details: raw materials named in Example 2 as not promoting; test conditions not repeated there
Protocol: In other words, each of the perfumery raw materials being present in the perfume composition is capable of inducing a hydrogen sulfide smell when being mixed individually in a 1:1 (w/w) ratio with the sulfur-containing pro-fragrance compound and being stored for 2 weeks at 50° C. Preferably, a hydrogen sulfide smell is induced when being mixed in a 1:1 (w/w) ratio with 3-(dodecylthio)-1-(2,6,6-trimethylcyclohex-3-en-1-yl) butan-1-one (HaloScent® D) and stored for 2 weeks at 50° C. Preferably, the mixing is carried out in a 10 mL glass jar. The perfumery raw materials may be used as such or may be dissolved in a solvent, for example at a concentration of from 10% to 50%.
Perfumery raw materials that promote the formation of hydrogen sulfide from 3-(dodecylthio)-1-(2,6,6-trimethylcyclohex-3-en-1-yl) butan-1-one (HaloScent® D) have been identified by mixing individual perfumery raw materials with 3-(dodecylthio)-1-(2,6,6-trimethylcyclohex-3-en-1-yl) butan-1-one (HaloScent® D) in a 1:1 (w/w) ratio in a 10 mL glass jar and storing said mixture for 2 weeks at 50° C. In case a hydrogen sulfide smell (similar to rotten egg odor) could be perceived after 2 weeks, it has been concluded that the perfumery raw material promotes the formation of hydrogen sulfide from 3-(dodecylthio)-1-(2,6,6-trimethylcyclohex-3-en-1-yl) butan-1-one (HaloScent® D).

Compound | promotion of formation of hydrogen sulfide from HaloScent® D
CC(=O)OC1CCC(C(C)(C)C)CC1 (centres unmarked) [4-(2-methyl-2-propanyl)cyclohexyl acetate] | do not promote the formation of hydrogen sulfide
O=C1CCCCCCCCCCCC(=O)OCCO1 [1,4-dioxacycloheptadecane-5,17-dione] | do not promote the formation of hydrogen sulfide
CC/C=C\CCOC(C)=O [(Z)-3-hexenyl acetate] | do not promote the formation of hydrogen sulfide
CCOC(=O)/C=C/c1ccccc1 [ethyl (E)-3-phenyl-2-propenoate] | do not promote the formation of hydrogen sulfide
CCCC(=O)OCC [ethyl butanoate] | do not promote the formation of hydrogen sulfide
CCCC(=O)OC(C)(C)Cc1ccccc1 [1,1-dimethyl-2-phenylethyl butanoate] | do not promote the formation of hydrogen sulfide
C/C=C/c1ccc(O)c(OC)c1 [2-methoxy-4-[(1E)-1-propen-1-yl]phenol] | do not promote the formation of hydrogen sulfide
CCCC(=O)OCC(C)CC (centres unmarked) [2-methylbutyl butyrate] | do not promote the formation of hydrogen sulfide
COC(=O)c1ccccc1O [methyl 2-hydroxybenzoate] | do not promote the formation of hydrogen sulfide
CC(=O)OC1CC2CC1C1CC=CC21 (centres unmarked) [tricyclo[5.2.1.02,6]dec-¾-en-8-yl acetate] | do not promote the formation of hydrogen sulfide
CC(C)CCCC(C)CCO (racemic) [(+/−)-3,7-dimethyl-1-octanol] | do not promote the formation of hydrogen sulfide
CC(=O)OC(C)(C)Cc1ccccc1 [1,1-dimethyl-2-phenylethyl acetate] | do not promote the formation of hydrogen sulfide
C=CCOC(=O)CCCCC [allyl hexanoate] | do not promote the formation of hydrogen sulfide
CC(=O)c1ccccc1 [acetophenone] | do not promote the formation of hydrogen sulfide
allyl(⅔-methylbutoxy)acetate | do not promote the formation of hydrogen sulfide
COc1ccc(C)cc1 [1-methoxy-4-methylbenzene] | do not promote the formation of hydrogen sulfide
CC/C=C\CCOC(=O)OC [(3Z)-hex-3-en-1-yl methyl carbonate] | do not promote the formation of hydrogen sulfide
CC/C=C\CCO [(3Z)-3-hexen-1-ol] | do not promote the formation of hydrogen sulfide
CC(=O)O[C@@H]1CC2CC[C@]1(C)C2(C)C [(1R,2R)-1,7,7-trimethyl-bicyclo[2.2.1]hept-2-yl acetate] | do not promote the formation of hydrogen sulfide
COC(Cc1ccccc1)OC [(2,2-dimethoxyethyl)benzene] | do not promote the formation of hydrogen sulfide
C=C(OC(C)=O)c1ccccc1 [1-phenylvinyl acetate] | do not promote the formation of hydrogen sulfide
CC1C(C)(C)C2=C(C(=O)CCC2)C1(C)C (centres unmarked) [1,1,2,3,3-pentamethyl-1,2,3,5,6,7-hexahydro-4H-inden-4-one] | do not promote the formation of hydrogen sulfide
CCCC(=O)OCCC(C)C [3-methylbutyl butyrate] | do not promote the formation of hydrogen sulfide
C=CCc1ccc(O)c(OC)c1 [2-methoxy-4-(2-propen-1-yl) phenol] | do not promote the formation of hydrogen sulfide
CCCCCCOC(C)=O [hexyl acetate] | do not promote the formation of hydrogen sulfide

assay: logP above 4 (octanol-water partition coefficient); details: Yes/No

Compound | logP > 4
CCC(=O)OCC(C)(C)O[C@@H](C)[C@@H]1CCCC(C)(C)C1 [(+)-2-{(1S)-1-[(1R)-3,3-dimethylcyclohexyl]ethoxy}-2-methylpropyl propionate] | Yes
C=CC(C)(O)CCC=C(C)C (racemic) [(+/−)-3,7-dimethyl-1,6-octadien-3-ol] | No
CC1(C)CCC[C@]2(C)[C@H]3CCO[C@]3(C)CC[C@@H]12 (racemic) [(3aRS,5aSR,9aSR,9bRS)-3a,6,6,9a-tetramethyldodecahydronaphtho[2,1-b]furan] | Yes
CCC(C)(O)CCCC(C)C (racemic) [(+/−)-3,7-dimethyl-3-octanol] | No
c1ccc2[nH]ccc2c1 [Indole] | No
CCCCC[C@H]1C(=O)CC[C@@H]1CC(=O)OC (racemic) [methyl 2-((1RS,2RS)-3-oxo-2-pentylcyclopentyl)acetate] | No
tricyclo[5.2.1.0^2,6]dec-3/4-en-8-yl propanoate | Yes
CC(C)=CCC[C@@H](C)CC#N [(−)-(R)-3,7-dimethyl-6-octenenitrile] | No
CC1=CC[C@H](/C=C/C(C)(C)C(C)O)C1(C)C (stereo partly drawn) [(4E)-3,3-dimethyl-5-[(1R)-2,2,3-trimethyl-3-cyclopenten-1-yl]-4-penten-2-ol] | Yes
C=CCOC(=O)CCC1CCCCC1 [allyl 3-cyclohexylpropanoate] | Yes
C=CC(C)(CCC=C(C)C)OC(C)=O (racemic) [(+/−)-1,5-dimethyl-1-vinyl-4-hexenyl acetate] | Yes
3-methyl-4/5-cyclopentadecen-1-one | Yes
OCCc1ccccc1 [2-phenylethanol] | No
CCC(O)COC1CCCCC1C(C)(C)C (racemic) [(+/−)-1-(2-tert-butyl-1-cyclohexyloxy)-2-butanol] | Yes
CCOc1ccc2ccccc2c1 [2-ethoxynaphthalene] | No
Cc1ccc2c(c1)CC(C)(CO)C2 (racemic) [(+/−)-2,5-dimethyl-2,3-dihydro-1H-inden-2-yl)methanol] | No
CC(CO)c1ccccc1 (racemic) [(+/−)-2-phenyl-1-propanol] | No
CCC(=CCC1CC=C(C)C1(C)C)CO (racemic) [(+/−)-2-ethyl-4-(2,2,3-trimethyl-3-cyclopenten-1-yl)-2-buten-1-ol] | Yes
CC(=O)C1(C)CC2=C(CCCC2(C)C)CC1C (centres unmarked) [1-(octahydro-2,3,8,8-tetramethyl-2-naphtalenyl)-1-ethanone] | Yes
CC(=O)c1ccc2ccccc2c1 [1-(2-naphthyl)ethanone] | No
CC(=O)CCc1ccc(O)cc1 [4-(4-hydroxyphenyl)-2-butanone] | No
N#CC(=C1CCCCC1)c1ccccc1 [cyclohexylidene(phenyl)acetonitrile] | No
CC1=CCC(C(C)(C)O)CC1 (racemic) [(+/−)-alpha-terpineol] | No
CC/C=C\CCOC(=O)c1ccccc1O [(3Z)-3-hexen-1-yl salicylate] | Yes
C=CC(C)CCCC(C)(C)O (racemic) [(+−)-2,6-dimethyl-7-octen-2-ol] | No
